Source: publication PMC10507807, “De novo design of a stapled peptide targeting SARS-CoV-2 spike protein receptor-binding domain” (RSC Medicinal Chemistry, 2023)
Starred links: 1 amine or outer side, 2 acyl side, 3 side chain; linkers in the order of their positions; H or OH if unused. Positions of bridges follow the written chain, without caps; N, C: chain ends. Non-standard residues stand in square brackets, D forms with d. Residues, ends and D or L forms follow the SMILES beside them. X1 = C[C@@](CC=[*:3])(N[*:1])C(=O)[*:2]

Tests used:
[1] = system: SARS-CoV-2 spike protein RBD; assay type: binding
Vero E6 cells = conditions: MTT, 0.05–50 μM pep39, 48 h

CSCC[C@@H]1NC(=O)[C@H](CC(N)=O)NC(=O)[C@@H]2CC(=O)NCCCC[C@H](NC(=O)[C@H](Cc3c[nH]c4ccccc34)NC(=O)[C@@H](NC(=O)[C@H](CCCCN)NC(=O)[C@H](Cc3ccc(O)cc3)NC(=O)[C@H](CC(C)C)NC(=O)[C@H](Cc3c[nH]c4ccccc34)NC(=O)[C@H](CCC(=O)O)NC(=O)[C@@H](NC(=O)CNC(C)=O)[C@@H](C)O)C(C)C)C(=O)N[C@@H](C)C(=O)N[C@@H](Cc3ccccc3)C(=O)N[C@@](C)(C/C=C/C[C@@](C)(C(=O)O)NC1=O)C(=O)N2 [pep39] (Ac-GTEWLYKVWKAF[X1]DNM[X1]-OH; lactam 10-14; staple (E) 13-17)
confirmation of binding to spike protein RBD [1]: able to confirm the binding of pep39 on the surface of the spike protein RBD
maximum micro-cantilever deflection ([1]; pH 7.4): 33.27 nm
minimum micro-cantilever deflection ([1]; pH 7.4): 8.46 nm
concentration at which significant inhibition of cell growth was observed (Vero E6 cells; P < 0.05 vs PBS): ≥ 50 µM
concentration above which cell growth is dose dependently inhibited (Vero E6 cells; vs PBS): higher than 0.5 μM
